Results published in US9556165B2 (priority 2012, dated 2017).
Converted amounts (≈) assume the structure as drawn.

Legend:
Experiment in all cases: MIC determination, broth microdilution (CLSI)
Assay type in all cases: cell-based
[1] = test system: H. influenzae ATCC 49247; details: Haemophilus influenzae, ATCC49247, strain 13; read-out: strain 13 MIC
[2] = test system: E. cloacae 34654; details: for MIC: Enterobacter cloacae, 34654, strain 3
[3] = test system: strain 20
[4] = test system: C. freundii K21/3034; details: for MIC: Citrobacter freundii, K21/3034, strain 4
[5] = test system: P. aeruginosa 2297-con (AmpC derepressed); details: for MIC: Pseudomonas aeruginosa, read-out: strain 8 MIC, strain 8
[6] = test system: strain 21
[7] = test system: M. catarrhalis ICB489; details: for MIC: Moraxella catarrhalis, ICB489, strain 12
[8] = test system: E. coli J62-TEM-3; details: Escherichia coli, J62TEM3, read-out: strain 18 MIC, strain 18
[9] = test system: K. pneumoniae 60; details: for MIC: Klebsiella pneumoniae, 60, strain 2
[10] = test system: M. morganii 126/3048; details: for MIC: Morganella morganii, 126/3048, strain 5
[11] = test system: S. maltophilia ICB7569; details: Stenotrophomonas maltophilia, ICB7569, strain 10
[12] = test system: P. aeruginosa PAO1; details: for MIC: Pseudomonas aeruginosa, PAO1, strain 6
[13] = test system: S. aureus 133; details: Staphylococcus aureus, 133, strain 11; read-out: strain 11 MIC
[14] = test system: A. baumannii ATCC15308; details: Acinetobacter baumannii, ATCC15308, strain 9
[15] = test system: E. coli J62; details: for MIC: Escherichia coli, J62, strain 17, read-out: strain 17 MIC
[16] = test system: P. aeruginosa 2297 (AmpC wt); details: for MIC: Pseudomonas aeruginosa, strain 7
[17] = test system: strain 19
[18] = test system: E. coli ATCC25922; details: for MIC: Escherichia coli, ATCC25922, strain 1
[19] = test system: B. fragilis 6688; details: Bacteroides fragilis, 6688, strain 15; read-out: strain 15 MIC
[20] = test system: S. pneumoniae 113; details: Streptococcus pneumoniae, 113, strain 14; read-out: strain 14 MIC

Row | SMILES | MIC [1] | MIC [8] | MIC [11] | MIC [13] | MIC [14] | MIC [19] | MIC [20] | MIC [2] | MIC [3] | MIC [4] | MIC [6] | MIC [7] | MIC [9] | MIC [10] | MIC [12] | MIC [15] | MIC [17] | MIC [18] | MIC [5] | MIC [16] | further results
1 | C[C@H]1[C@H](NC(=O)/C(=N\OC(COc2ccc(C(=N)N)cc2)C(=O)O)c2csc(N)n2)C(=O)N1S(=O)(=O)O (mixture of isomers) [Example 26A, (2S and 2R)-2-({[(1Z)-1-(2-Amino-1,3-thiazol-4-yl)-2-{[(2S,3S)-2-methyl-4-oxo-1-sulfoazetidin-3-yl]amino}-2-oxoethylidene]amino}oxy)-3-(4-carbamidinoyl-phenoxy)propanoic acid] | 2 µg/mL | 32 µg/mL | 16 µg/mL | ≤ 0.063 µg/mL | 8 µg/mL | 8 µg/mL | 32 µg/mL |  |  |  |  |  |  |  |  |  |  |  |  |  | strain 3 MIC ([2]; strain 3): 0.125 µg/mL; strain 20 MIC [3]: 0.125 µg/mL; strain 4 MIC ([4]; strain 4): ≦0.063 mg/L; strain 8 MIC ([5]; strain 8): 8 µg/mL; strain 21 MIC [6]: 0.125 µg/mL; strain 12 MIC ([7]; strain 12): ≦0.063 mg/L; strain 2 MIC ([9]; strain 2): 0.031 µg/mL; strain 5 MIC ([10]; strain 5): ≦0.063 mg/L; strain 6 MIC ([12]; strain 6): 1 µg/mL; strain 17 MIC ([15]; strain 17): 0.125 µg/mL; strain 7 MIC [16]: 2 µg/mL; strain 19 MIC [17]: ≦0.063 mg/L; strain 1 MIC ([18]; strain 1): ≦0.063 mg/L
2 | C[C@H]1[C@H](NC(=O)/C(=N\OCCOc2ccc(C(=N)N)c(O)c2)c2csc(N)n2)C(=O)N1S(=O)(=O)O [Example 2, (2S,3S)-3-{[(2Z)-2-(2-Amino-1,3-thiazol-4-yl)-2-{[2-(4-carbamimidoyl-3-hydroxyphenoxy)ethoxy]imino}acetyl]amino}-2-methyl-4-oxoazetidine-1-sulfonic acid] | 0.5 µg/mL (≈ 0.948 µM) | 32 µg/mL (≈ 60.7 µM) | 0.125 µg/mL (≈ 0.237 µM) | 0.25 µg/mL (≈ 0.474 µM) | 4 µg/mL (≈ 7.58 µM) | 16 µg/mL (≈ 30.3 µM) | 16 µg/mL (≈ 30.3 µM) | 0.25 µg/mL (≈ 0.474 µM) | 0.125 µg/mL (≈ 0.237 µM) | 0.125 µg/mL (≈ 0.237 µM) | 0.25 µg/mL (≈ 0.474 µM) | ≤ 0.063 µg/mL | 0.125 µg/mL (≈ 0.237 µM) | ≤ 0.063 µg/mL | 2 µg/mL (≈ 3.79 µM) | 0.25 µg/mL (≈ 0.474 µM) | 0.125 µg/mL (≈ 0.237 µM) | 0.125 µg/mL (≈ 0.237 µM) |  |  | 
3 | C[C@H]1[C@H](NC(=O)/C(=N\OCCOc2ccc(C(=N)N)cc2)c2csc(N)n2)C(=O)N1S(=O)(=O)O [Example 9, (2S,3S)-3-{[(2Z)-2-(2-Amino-1,3-thiazol-4-yl)-2-{[2-(4-carbamimidoylphenoxy)ethoxy]imino}acetyl]amino}-2-methyl-4-oxoazetidine-1-sulfonic acid] | 0.25 µg/mL (≈ 0.489 µM) | 16 µg/mL (≈ 31.3 µM) | 32 µg/mL (≈ 62.6 µM) | ≤ 0.063 µg/mL | 0.5 µg/mL (≈ 0.977 µM) | 8 µg/mL (≈ 15.6 µM) | 4 µg/mL (≈ 7.82 µM) | 0.125 µg/mL (≈ 0.244 µM) | 0.125 µg/mL (≈ 0.244 µM) | 0.125 µg/mL (≈ 0.244 µM) | 0.125 µg/mL (≈ 0.244 µM) | ≤ 0.063 µg/mL | 0.125 µg/mL (≈ 0.244 µM) | 0.125 µg/mL (≈ 0.244 µM) | 2 µg/mL (≈ 3.91 µM) | 0.25 µg/mL (≈ 0.489 µM) | 0.125 µg/mL (≈ 0.244 µM) | 0.125 µg/mL (≈ 0.244 µM) | 16 µg/mL (≈ 31.3 µM) | 2 µg/mL (≈ 3.91 µM) | 
4 | C[C@@H]1[C@H](NC(=O)/C(=N\OCCOc2ccc(C(=N)N)cc2)c2csc(N)n2)C(=O)N1S(=O)(=O)O [Example 11, (2R,3S)-3-{[(2Z)-2-(2-Amino-1,3-thiazol-4-yl)-2-{[2-(4-carbamimidoylphenoxy)ethoxy]imino}acetyl]amino}-2-methyl-4-oxoazetidine-1-sulfonic acid] | 0.5 µg/mL (≈ 0.977 µM) | 8 µg/mL (≈ 15.6 µM) | 32 µg/mL (≈ 62.6 µM) | 0.125 µg/mL (≈ 0.244 µM) | 0.5 µg/mL (≈ 0.977 µM) | 8 µg/mL (≈ 15.6 µM) | 4 µg/mL (≈ 7.82 µM) | ≤ 0.063 µg/mL | 0.25 µg/mL (≈ 0.489 µM) | ≤ 0.125 µg/mL | 0.25 µg/mL (≈ 0.489 µM) | 0.125 µg/mL (≈ 0.244 µM) | ≤ 0.125 µg/mL | ≤ 0.063 µg/mL | 1 µg/mL (≈ 1.95 µM) | 0.25 µg/mL (≈ 0.489 µM) | 0.25 µg/mL (≈ 0.489 µM) | 0.125 µg/mL (≈ 0.244 µM) | 16 µg/mL (≈ 31.3 µM) | 2 µg/mL (≈ 3.91 µM) | 
5 | C[C@H]1[C@H](NC(=O)/C(=N\OCCOc2ccc(C(=N)N)cc2Cl)c2csc(N)n2)C(=O)N1S(=O)(=O)O [Example 20, (2S,3S)-3-{[(2Z)-2-(2-Amino-1,3-thiazol-4-yl)-2-{[2-(4-carbamimidoyl-2-chlorophenoxy)ethoxy]imino}acetyl]amino}-2-methyl-4-oxoazetidine-1-sulfonic acid] | 0.5 µg/mL (≈ 0.916 µM) | 32 µg/mL (≈ 58.6 µM) |  | 0.125 µg/mL (≈ 0.229 µM) | 2 µg/mL (≈ 3.66 µM) | 16 µg/mL (≈ 29.3 µM) | 16 µg/mL (≈ 29.3 µM) | 2 µg/mL (≈ 3.66 µM) | 2 µg/mL (≈ 3.66 µM) | 1 µg/mL (≈ 1.83 µM) | 1 µg/mL (≈ 1.83 µM) | 0.5 µg/mL (≈ 0.916 µM) | 2 µg/mL (≈ 3.66 µM) | 2 µg/mL (≈ 3.66 µM) | 8 µg/mL (≈ 14.7 µM) | 2 µg/mL (≈ 3.66 µM) | 2 µg/mL (≈ 3.66 µM) | 2 µg/mL (≈ 3.66 µM) | 32 µg/mL (≈ 58.6 µM) | 8 µg/mL (≈ 14.7 µM) | 
6 | C[C@H]1[C@H](NC(=O)/C(=N\OCCOc2ccc(C(=N)N)nn2)c2csc(N)n2)C(=O)N1S(=O)(=O)O [Example 28, (2S,3S)-3-{[(2Z)-2-(2-Amino-1,3-thiazol-4-yl)-2-({2-[(6-carbamimidoylpyridazin-3-yl)oxy]ethoxy}imino)acetyl]amino}-2-methyl-4-oxoazetidine-1-sulfonic acid] | 0.5 µg/mL (≈ 0.974 µM) | 32 µg/mL (≈ 62.3 µM) |  | 0.125 µg/mL (≈ 0.243 µM) | 0.5 µg/mL (≈ 0.974 µM) | 8 µg/mL (≈ 15.6 µM) | 2 µg/mL (≈ 3.89 µM) | 0.125 µg/mL (≈ 0.243 µM) | 0.25 µg/mL (≈ 0.487 µM) | 0.125 µg/mL (≈ 0.243 µM) | 0.25 µg/mL (≈ 0.487 µM) | 0.25 µg/mL (≈ 0.487 µM) | 0.125 µg/mL (≈ 0.243 µM) | 0.125 µg/mL (≈ 0.243 µM) | 4 µg/mL (≈ 7.79 µM) | 0.25 µg/mL (≈ 0.487 µM) | 0.25 µg/mL (≈ 0.487 µM) | 0.125 µg/mL (≈ 0.243 µM) | 32 µg/mL (≈ 62.3 µM) | 8 µg/mL (≈ 15.6 µM) | 
7 | C[C@H]1[C@H](NC(=O)/C(=N\OCCOc2cnc(C(=N)N)cn2)c2csc(N)n2)C(=O)N1S(=O)(=O)O [Example 30, (2S,3S)-3-{[(2Z)-2-(2-Amino-1,3-thiazol-4-yl)-2-({2-[(5-carbamimidoylpyrazin-2-yl)oxy]-ethoxy}imino)acetyl]amino}-2-methyl-4-oxoazetidine-1-sulfonic acid] | 0.5 µg/mL (≈ 0.974 µM) | 16 µg/mL (≈ 31.2 µM) |  | 0.125 µg/mL (≈ 0.243 µM) | 1 µg/mL (≈ 1.95 µM) | 8 µg/mL (≈ 15.6 µM) | 4 µg/mL (≈ 7.79 µM) | 0.25 µg/mL (≈ 0.487 µM) | 0.25 µg/mL (≈ 0.487 µM) | ≤ 0.063 µg/mL | 0.25 µg/mL (≈ 0.487 µM) | 0.25 µg/mL (≈ 0.487 µM) | ≤ 0.063 µg/mL | ≤ 0.063 µg/mL | 4 µg/mL (≈ 7.79 µM) | 0.25 µg/mL (≈ 0.487 µM) | 0.25 µg/mL (≈ 0.487 µM) | 0.125 µg/mL (≈ 0.243 µM) | 32 µg/mL (≈ 62.3 µM) | 4 µg/mL (≈ 7.79 µM) | 
8 | C[C@H]1[C@H](NC(=O)/C(=N\OCCOc2nc(C(=N)N)cs2)c2csc(N)n2)C(=O)N1S(=O)(=O)O [Example 31, (2S,3S)-3-{[(2Z)-2-(2-Amino-1,3-thiazol-4-yl)-2-({2-[(4-carbamimidoyl-1,3-thiazol-2-yl)oxy]ethoxy}imino)acetyl]amino}-2-methyl-4-oxoazetidine-1-sulfonic acid] | 0.25 µg/mL (≈ 0.482 µM) | 32 µg/mL (≈ 61.7 µM) |  | ≤ 0.063 µg/mL | 1 µg/mL (≈ 1.93 µM) | 4 µg/mL (≈ 7.71 µM) | 8 µg/mL (≈ 15.4 µM) | 0.25 µg/mL (≈ 0.482 µM) | 0.25 µg/mL (≈ 0.482 µM) | ≤ 0.063 µg/mL | 0.25 µg/mL (≈ 0.482 µM) | 0.25 µg/mL (≈ 0.482 µM) | ≤ 0.063 µg/mL | 0.25 µg/mL (≈ 0.482 µM) | 8 µg/mL (≈ 15.4 µM) | 0.25 µg/mL (≈ 0.482 µM) | 0.125 µg/mL (≈ 0.241 µM) | 0.125 µg/mL (≈ 0.241 µM) | 32 µg/mL (≈ 61.7 µM) | 8 µg/mL (≈ 15.4 µM) | 
9 | C[C@H]1[C@H](NC(=O)/C(=N\OCCOc2ccc(C(=N)N)cc2N)c2csc(N)n2)C(=O)N1S(=O)(=O)O [Example 35, (2S,3S)-3-{[(2Z)-2-{[2-(2-Amino-4-carbamimidoylphenoxy)ethoxy]imino}-2-(2-amino-1,3-thiazol-4-yl)acetyl]amino}-2-methyl-4-oxoazetidine-1-sulfonic acid] | 1 µg/mL (≈ 1.9 µM) | 32 µg/mL (≈ 60.8 µM) |  | 0.25 µg/mL (≈ 0.475 µM) | 2 µg/mL (≈ 3.8 µM) | 16 µg/mL (≈ 30.4 µM) | 32 µg/mL (≈ 60.8 µM) | 4 µg/mL (≈ 7.6 µM) | 8 µg/mL (≈ 15.2 µM) | 2 µg/mL (≈ 3.8 µM) | 4 µg/mL (≈ 7.6 µM) | 1 µg/mL (≈ 1.9 µM) | 2 µg/mL (≈ 3.8 µM) | 1 µg/mL (≈ 1.9 µM) | 16 µg/mL (≈ 30.4 µM) | 4 µg/mL (≈ 7.6 µM) | 2 µg/mL (≈ 3.8 µM) | 2 µg/mL (≈ 3.8 µM) | 32 µg/mL (≈ 60.8 µM) | 16 µg/mL (≈ 30.4 µM) | 
